Test results from ChEMBL document CHEMBL3124787, “Discovery of novel bis-oxazolidinone compounds as potential potent and selective antitubercular agents” (Bioorg Med Chem Lett, 2014).

Columns and labels:
Type in all cases: functional
[1] = test system: Mycobacterium tuberculosis; test: Ratio of MIC for compound to linezolid for extensive drug-resistant Mycobacterium tuberculosis
[2] = test system: Mycobacterium tuberculosis; test: Ratio of MIC for compound to linezolid for multidrug-resistant Mycobacterium tuberculosis
[3] = test system: Mycobacterium tuberculosis; test: Antitubercular activity against extensive drug-resistant Mycobacterium tuberculosis clinical isolate 7 assessed as growth inhibition by microdilution method
[4] = test system: Mycobacterium tuberculosis; test: Antitubercular activity against extensive drug-resistant Mycobacterium tuberculosis clinical isolate 6 assessed as growth inhibition by microdilution method
[5] = test system: Mycobacterium tuberculosis; test: Antitubercular activity against extensive drug-resistant Mycobacterium tuberculosis clinical isolate 5 assessed as growth inhibition by microdilution method
[6] = test system: Mycobacterium tuberculosis; test: Antitubercular activity against extensive drug-resistant Mycobacterium tuberculosis clinical isolate 4 assessed as growth inhibition by microdilution method
[7] = test system: Mycobacterium tuberculosis; test: Antitubercular activity against multidrug-resistant Mycobacterium tuberculosis clinical isolate 3 assessed as growth inhibition by microdilution method
[8] = test system: Mycobacterium tuberculosis; test: Antitubercular activity against multidrug-resistant Mycobacterium tuberculosis clinical isolate 2 assessed as growth inhibition by microdilution method
[9] = test system: Mycobacterium tuberculosis; test: Antitubercular activity against isoniazid-resistant Mycobacterium tuberculosis H37RV clinical isolate 1 assessed as growth inhibition by microdilution method; conditions: H37Rv isolate 1

## CC(=O)NC[C@H]1CN(c2ccc(OC[C@@H]3CN(c4ccccc4)C(=O)O3)c(F)c2)C(=O)O1
[1]
  Ratio: >20
[2]
  Ratio: >20
[3]
  MIC: 8 µg/mL
[4]
  MIC: 2 µg/mL
[5]
  MIC: 4 µg/mL
[6]
  MIC: 4 µg/mL
[7]
  MIC: 4 µg/mL
[8]
  MIC: 4 µg/mL
[9]
  MIC: 8 µg/mL

## COc1ccc(N2C[C@@H](COc3ccc(N4C[C@H](CNC(C)=O)OC4=O)cc3F)OC2=O)cc1
[1]
  Ratio: >20
[2]
  Ratio: >20
[3]
  MIC: 8 µg/mL
[4]
  MIC: 2 µg/mL
[5]
  MIC: 4 µg/mL
[6]
  MIC: 4 µg/mL
[7]
  MIC: 4 µg/mL
[8]
  MIC: 4 µg/mL
[9]
  MIC: 4 µg/mL

## NNC(=O)c1ccncc1 [ISONIAZID]
[3]
  MIC: 8 µg/mL
[4]
  MIC: 4 µg/mL
[5]
  MIC: 4 µg/mL
[6]
  MIC: 2 µg/mL
[7]
  MIC: 2 µg/mL
[8]
  MIC: 8 µg/mL
[9]
  MIC: 2 µg/mL

## CC(=O)NC[C@H]1CN(c2ccc(N3CCOCC3)c(F)c2)C(=O)O1 [LINEZOLID]
[3]
  MIC: 0.25 µg/mL
[4]
  MIC: 0.25 µg/mL
[5]
  MIC: 0.25 µg/mL
[6]
  MIC: 1 µg/mL
[7]
  MIC: 0.25 µg/mL
[9]
  MIC: 0.25 µg/mL
